Test results taken from the supplement of paper PMC11061612.

Assays:
Assay in all cases: combination Emax (second highest fraction inhibited in the dose matrix, 72 h); higher = more inhibition; extreme values may be limits of the assay
[1] = test system: C2BBe1 (Colorectal Carcinoma)
In short: (§1)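 Bliss excess equals the observed combination effect minus the expected value EA + EB − EA·EB, where EA and EB are the effects of each agent alone. Combination Emax is the second-highest inhibition within the matrix. Inhibition was scaled from CellTiter-Glo 2.0 luminescence, with 0 set by vehicle wells and 1 by blank wells, after 72 hours of two-drug dosing of cells plated in 1536-well plates.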

[2] = test system: CAL-85-1 (Breast Carcinoma)
In short: as §1

[3] = test system: COR-L105 (Lung Adenocarcinoma)
In short: as §1

[4] = test system: DK-MG (Glioblastoma)
In short: as §1

[5] = test system: GCIY (Gastric Carcinoma)
In short: as §1

[6] = test system: IGROV-1 (Ovarian Carcinoma)
In short: as §1

[7] = test system: JJN-3 (Plasma Cell Myeloma)
In short: as §1

[8] = test system: L-363 (Plasma Cell Myeloma)
In short: as §1

[9] = test system: MRK-nu-1 (Breast Carcinoma)
In short: as §1

[10] = test system: NCI-H1944 (Lung Adenocarcinoma)
In short: as §1

[11] = test system: NCI-H1975 (Lung Adenocarcinoma)
In short: as §1

[12] = test system: NCI-H2009 (Lung Adenocarcinoma)
In short: as §1

[13] = test system: NCI-H2023 (Non-Small Cell Lung Carcinoma)
In short: as §1

[14] = test system: NCI-H2452 (Mesothelioma)
In short: as §1

[15] = test system: OCI-M1 (Acute Myeloid Leukemia)
In short: as §1

[16] = test system: SK-N-DZ (Neuroblastoma)
In short: as §1

[17] = test system: SW1463 (Colorectal Carcinoma)
In short: as §1

[18] = test system: TK (B-Cell Non-Hodgkin's Lymphoma)
In short: as §1

[19] = test system: TOV-21G (Ovarian Carcinoma)
In short: as §1

[20] = test system: NCI-H835 (Other Solid Carcinomas)
In short: as §1

Row | Structure (SMILES) | combination Emax [1] | combination Emax [2] | combination Emax [3] | combination Emax [4] | combination Emax [5] | combination Emax [6] | combination Emax [7] | combination Emax [8] | combination Emax [9] | combination Emax [10] | combination Emax [11] | combination Emax [12] | combination Emax [13] | combination Emax [14] | combination Emax [15] | combination Emax [16] | combination Emax [17] | combination Emax [18] | combination Emax [19] | combination Emax [20]
1 | Cc1cc2ncnn2cc1Nc1ncc2c(n1)n(C1CCOCC1)c(=O)n2C [AZD7648] + O=C(c1cc(Cc2n[nH]c(=O)c3ccccc23)ccc1F)N1CCN(C(=O)C2CC2)CC1 [Olaparib] (first compound max 10 µM, 7x7, partner max 10 µM) | 0.218 | 0.337 | 0.222 | 0.262 | 0.342 | 0.598 | 0.256 | 0.231 | 0.387 | 0.246 | 0.389 | 0.137 | 0.38 | 0.266 | 0.173 | 0.278 | 0.0764 | 0.26 | 0.16 | 
2 | Cc1nc(Nc2ncc(C(=O)Nc3c(C)cccc3Cl)s2)cc(N2CCN(CCO)CC2)n1 [Dasatinib] + CC(=O)Nc1cccc(-n2c(=O)n(C3CC3)c(=O)c3c(Nc4ccc(I)cc4F)n(C)c(=O)c(C)c32)c1 [Trametinib] (first compound max 2 µM, 7x7, partner max 1 µM) | 0.692 | 0.853 | 0.806 | 0.895 | 0.83 | 0.956 | 0.446 | 0.146 | 0.254 | 0.65 | 0.662 | 0.916 | 0.394 | 0.804 | 0.884 | 0.192 | 0.786 | 0.145 | 0.8 | 0
3 | COc1cc2ncnc(Nc3ccc(F)c(Cl)c3)c2cc1OCCCN1CCOCC1 [Gefitinib] + CC(C)n1c(=O)n(C)c2cnc3cc(F)c(-c4ccc(OCCCN5CCCCC5)nc4)cc3c21 [AZD1390] (first compound max 10 µM, 7x7, partner max 0.3 µM) | 0.288 | 0.466 | 0.619 | 0.248 | 0.459 |  | 0.236 | 0.148 | 0.443 | 0.19 | 0.419 | 0.119 | 0.151 | 0.306 | 0.0417 | 0.19 | 0.728 | 0.076 | 0.275 | 0.144
4 | COc1cc2c(cc1OCCCCCOc1cc3c(cc1OC)C(=O)N1C=C(C)C[C@H]1C=N3)N=C[C@@H]1CC(C)=CN1C2=O [SG3199] + O=C(c1cc(Cc2n[nH]c(=O)c3ccccc23)ccc1F)N1CCN(C(=O)C2CC2)CC1 [Olaparib] (first compound max 0.001 µM, 7x7, partner max 10 µM) | 0.0966 | 0.188 | 0.0843 | 0.099 | 0.258 | 0.358 | 0.254 | 0.0669 | 0.223 | 0.192 | 0.172 | 0.144 | 0.173 | 0.155 | 0.249 | 0.358 | 0.0306 | 0.184 | 0.195 | 0.169
5 | N#Cc1cnc(Nc2cc(NC[C@H]3CNCCO3)c(C(F)(F)F)cn2)cn1 [SRA737] + C=CCn1c(=O)c2cnc(Nc3ccc(N4CCN(C)CC4)cc3)nc2n1-c1cccc(C(C)(C)O)n1 [AZD1775] (first compound max 10 µM, partner max 1 µM) |  | 0.476 | 0.383 |  | 0.611 |  |  | 0.937 | 0.724 |  |  | 0.82 | 0.594 | 0.722 |  |  | 0.629 |  |  | 0.546
6 | N#Cc1cnc(Nc2cc(NC[C@H]3CNCCO3)c(C(F)(F)F)cn2)cn1 [SRA737] + CCc1c2c(nc3ccc(O)cc13)-c1cc3c(c(=O)n1C2)COC(=O)[C@]3(O)CC [SN-38] (first compound max 10 µM, 7x7, partner max 0.3 µM) |  | 0.746 | 0.38 |  | 0.85 |  |  | 0.878 | 0.763 |  |  | 0.768 | 0.747 | 0.787 |  |  | 0.758 |  |  | 0.402
7 | N#Cc1cnc(Nc2cc(NC[C@H]3CNCCO3)c(C(F)(F)F)cn2)cn1 [SRA737] + Nc1ccn([C@@H]2O[C@H](CO)[C@@H](O)C2(F)F)c(=O)n1 [Gemcitabine] (first compound max 10 µM, 7x7, partner max 0.3 µM) |  | 0.743 | 0.485 |  | 0.78 |  |  | 0.986 | 0.748 |  |  | 0.785 | 0.708 | 0.737 |  |  | 0.848 |  |  | 0.321
8 | N#Cc1cnc(Nc2cc(NC[C@H]3CNCCO3)c(C(F)(F)F)cn2)cn1 [SRA737] + O=c1[nH]cc(F)c(=O)[nH]1 [5-Fluorouracil] (first compound max 10 µM, 7x7, partner max 20 µM) |  | 0.555 | 0.234 |  | 0.505 |  |  | 0.934 | 0.443 |  |  | 0.444 | 0.689 | 0.513 |  |  | 0.402 |  |  | 0.391
